Measured values taken from patent US12077503B2, “Substituted cyclic amides and their use as herbicides” (FMC CORPORATION, priority 2015, dated 2024).

Tests used:
Assay in all cases: Test C preemergence
Assay type in all cases: in vivo
[1] = test system: blackgrass (Alopecurus myosuroides); conditions: for Plant response rating, Blackgrass: scale 0 to 100, 0 no effect, 100 complete control
In short: (§1)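 Visual 0 (no effect) to 100 (complete control) ratings versus controls, taken 13–15 d after treatment in the greenhouse; dash means no result. Compounds in a surfactant-containing non-phytotoxic solvent blend were applied preemergence to seeds in loam-sand soil or postemergence to 1- to 4-leaf plants (2–18 cm) in peat-based medium.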

[2] = test system: pigweed (Amaranthus retroflexus); conditions: for Plant response rating, Pigweed: scale 0 to 100, 0 no effect, 100 complete control
In short: as §1

[3] = test system: waterhemp (common waterhemp, Amaranthus rudis); conditions: for Plant response rating, Waterhemp: scale 0 to 100, 0 no effect, 100 complete control
In short: as §1

soybean (Glycine max) = conditions: for Plant response rating, Soybean: scale 0 to 100, 0 no effect, 100 complete control
In short: as §1

[4] = test system: crabgrass, large (large crabgrass, Digitaria sanguinalis); conditions: for Plant response rating, Crabgrass, Large: scale 0 to 100, 0 no effect, 100 complete control
In short: as §1

[5] = test system: ragweed (common ragweed, Ambrosia elatior); conditions: for Plant response rating, Ragweed: scale 0 to 100, 0 no effect, 100 complete control
In short: as §1

[6] = test system: Galium (catchweed bedstraw, Galium aparine); conditions: for Plant response rating, Galium: scale 0 to 100, 0 no effect, 100 complete control
In short: as §1

[7] = test system: nutsedge, yellow (yellow nutsedge, Cyperus esculentus); conditions: for Plant response rating, Nutsedge, Yellow: scale 0 to 100, 0 no effect, 100 complete control
In short: as §1

[8] = test system: wheat (winter wheat, Triticum aestivum); conditions: for Plant response rating, Wheat: scale 0 to 100, 0 no effect, 100 complete control
In short: as §1

[9] = test system: velvetleaf (Abutilon theophrasti); conditions: for Plant response rating, Velvetleaf: scale 0 to 100, 0 no effect, 100 complete control
In short: as §1

[10] = test system: barnyardgrass (Echinochloa crus-galli); conditions: for Plant response rating, Barnyardgrass: scale 0 to 100, 0 no effect, 100 complete control
In short: as §1

[11] = test system: ryegrass, Italian (Italian ryegrass, Lolium multiflorum); conditions: for Plant response rating, Ryegrass, Italian: scale 0 to 100, 0 no effect, 100 complete control
In short: as §1

[12] = test system: morningglory (Ipomoea coccinea); conditions: for Plant response rating, Morningglory: scale 0 to 100, 0 no effect, 100 complete control
In short: as §1

[13] = test system: johnsongrass (Sorghum halepense); conditions: for Plant response rating, Johnsongrass: scale 0 to 100, 0 no effect, 100 complete control
In short: as §1

corn (Zea mays) = conditions: for Plant response rating, Corn: scale 0 to 100, 0 no effect, 100 complete control
In short: as §1

[14] = test system: lambsquarters (Chenopodium album); conditions: for Plant response rating, Lambsquarters: scale 0 to 100, 0 no effect, 100 complete control
In short: as §1

[15] = test system: foxtail, giant (giant foxtail, Setaria faberii); conditions: for Plant response rating, Foxtail, Giant: scale 0 to 100, 0 no effect, 100 complete control
In short: as §1

[16] = test system: oilseed rape (Brassica napus); conditions: for Plant response rating, Oilseed Rape: scale 0 to 100, 0 no effect, 100 complete control
In short: as §1

[17] = 31 g ai/ha, 0 is no effect, 100 is complete control

CN1CC(c2cccc(OC(F)F)c2)C(C(=O)Nc2ccc(F)cc2F)C1=O (stereo not drawn) [Compound 617]
Plant response rating (scale of 0 to 100), Blackgrass [1, 17]: 20 | Plant response rating, Blackgrass ([1]; 62 g ai/ha): 20 | Plant response rating, Blackgrass ([1]; 125 g ai/ha): 85 | Plant response rating, Blackgrass ([1]; 250 g ai/ha): 90 | Plant response rating (scale of 0 to 100), Pigweed [2, 17]: 10 | Plant response rating, Pigweed ([2]; 62 g ai/ha): 20 | Plant response rating, Pigweed ([2]; 125 g ai/ha): 45 | Plant response rating, Pigweed ([2]; 250 g ai/ha): 75 | Plant response rating (scale of 0 to 100), Waterhemp [3, 17]: 20 | Plant response rating, Waterhemp ([3]; 62 g ai/ha): 25 | Plant response rating, Waterhemp ([3]; 125 g ai/ha): 70 | Plant response rating, Waterhemp ([3]; 250 g ai/ha): 80 | Plant response rating (scale of 0 to 100), Soybean (soybean (Glycine max); [17]): 0 | Plant response rating, Soybean (soybean (Glycine max); 62 g ai/ha): 10 | Plant response rating, Soybean (soybean (Glycine max); 125 g ai/ha): 0 | Plant response rating, Soybean (soybean (Glycine max); 250 g ai/ha): 20 | Plant response rating (scale of 0 to 100), Crabgrass, Large [4, 17]: 95 | Plant response rating, Crabgrass, Large ([4]; 62 g ai/ha): 95 | Plant response rating, Crabgrass, Large ([4]; 125 g ai/ha): 100 | Plant response rating, Crabgrass, Large ([4]; 250 g ai/ha): 100 | Plant response rating (scale of 0 to 100), Ragweed [5, 17]: 10 | Plant response rating, Ragweed ([5]; 62 g ai/ha): 10 | Plant response rating, Ragweed ([5]; 125 g ai/ha): 40 | Plant response rating, Ragweed ([5]; 250 g ai/ha): 70 | Plant response rating (scale of 0 to 100), Galium [6, 17]: 0 | Plant response rating, Galium ([6]; 62 g ai/ha): 85 | Plant response rating, Galium ([6]; 125 g ai/ha): 85 | Plant response rating, Galium ([6]; 250 g ai/ha): 85 | Plant response rating (scale of 0 to 100), Nutsedge, Yellow [7, 17]: 0 | Plant response rating, Nutsedge, Yellow ([7]; 62 g ai/ha): 0 | Plant response rating, Nutsedge, Yellow ([7]; 125 g ai/ha): 20 | Plant response rating, Nutsedge, Yellow ([7]; 250 g ai/ha): 35 | Plant response rating (scale of 0 to 100), Wheat [8, 17]: 0 | Plant response rating, Wheat ([8]; 62 g ai/ha): 15 | Plant response rating, Wheat ([8]; 125 g ai/ha): 45 | Plant response rating, Wheat ([8]; 250 g ai/ha): 80 | Plant response rating (scale of 0 to 100), Velvetleaf [9, 17]: 10 | Plant response rating, Velvetleaf ([9]; 62 g ai/ha): 10 | Plant response rating, Velvetleaf ([9]; 125 g ai/ha): 20 | Plant response rating, Velvetleaf ([9]; 250 g ai/ha): 45 | Plant response rating (scale of 0 to 100), Barnyardgrass [10, 17]: 85 | Plant response rating, Barnyardgrass ([10]; 62 g ai/ha): 90 | Plant response rating, Barnyardgrass ([10]; 125 g ai/ha): 95 | Plant response rating, Barnyardgrass ([10]; 250 g ai/ha): 95 | Plant response rating (scale of 0 to 100), Ryegrass, Italian [11, 17]: 10 | Plant response rating, Ryegrass, Italian ([11]; 62 g ai/ha): 45 | Plant response rating, Ryegrass, Italian ([11]; 125 g ai/ha): 50 | Plant response rating, Ryegrass, Italian ([11]; 250 g ai/ha): 90 | Plant response rating (scale of 0 to 100), Morningglory [12, 17]: 0 | Plant response rating, Morningglory ([12]; 62 g ai/ha): 0 | Plant response rating, Morningglory ([12]; 125 g ai/ha): 25 | Plant response rating, Morningglory ([12]; 250 g ai/ha): 40 | Plant response rating (scale of 0 to 100), Johnsongrass [13, 17]: 25 | Plant response rating, Johnsongrass ([13]; 62 g ai/ha): 30 | Plant response rating, Johnsongrass ([13]; 125 g ai/ha): 65 | Plant response rating, Johnsongrass ([13]; 250 g ai/ha): 75 | Plant response rating (scale of 0 to 100), Corn (corn (Zea mays); [17]): 0 | Plant response rating, Corn (corn (Zea mays); 62 g ai/ha): 40 | Plant response rating, Corn (corn (Zea mays); 125 g ai/ha): 75 | Plant response rating, Corn (corn (Zea mays); 250 g ai/ha): 80 | Plant response rating (scale of 0 to 100), Lambsquarters [14, 17]: 30 | Plant response rating, Lambsquarters ([14]; 62 g ai/ha): 55 | Plant response rating, Lambsquarters ([14]; 125 g ai/ha): 70 | Plant response rating, Lambsquarters ([14]; 250 g ai/ha): 80 | Plant response rating (scale of 0 to 100), Foxtail, Giant [15, 17]: 90 | Plant response rating, Foxtail, Giant ([15]; 62 g ai/ha): 90 | Plant response rating, Foxtail, Giant ([15]; 125 g ai/ha): 95 | Plant response rating, Foxtail, Giant ([15]; 250 g ai/ha): 98 | Plant response rating (scale of 0 to 100), Oilseed Rape [16, 17]: 30 | Plant response rating, Oilseed Rape ([16]; 62 g ai/ha): 85 | Plant response rating, Oilseed Rape ([16]; 125 g ai/ha): 90 | Plant response rating, Oilseed Rape ([16]; 250 g ai/ha): 90
